Measurements taken from ChEMBL document CHEMBL5678818, “Discovery of potent SOS1 inhibitors that block RAS activation via disruption of the RAS-SOS1 interaction” (Proc Natl Acad Sci U S A, 2019).

Tests used:
[1] = biological target: Mitogen-activated protein kinase kinase kinase 9 (Homo sapiens) (UniProt P80192); assay: Inhibition of MLK1 (unknown origin) assessed as residual activity at 100 nM by KINOMEscan analysis relative to control
[2] = biological target: T1, Inhibitor of nuclear factor kappa-B kinase subunit alpha (Homo sapiens) (UniProt O15111); assay: Inhibition of IKK-alpha (unknown origin) assessed as residual activity at 100 nM by KINOMEscan analysis relative to control
T1 sequence (whole entry): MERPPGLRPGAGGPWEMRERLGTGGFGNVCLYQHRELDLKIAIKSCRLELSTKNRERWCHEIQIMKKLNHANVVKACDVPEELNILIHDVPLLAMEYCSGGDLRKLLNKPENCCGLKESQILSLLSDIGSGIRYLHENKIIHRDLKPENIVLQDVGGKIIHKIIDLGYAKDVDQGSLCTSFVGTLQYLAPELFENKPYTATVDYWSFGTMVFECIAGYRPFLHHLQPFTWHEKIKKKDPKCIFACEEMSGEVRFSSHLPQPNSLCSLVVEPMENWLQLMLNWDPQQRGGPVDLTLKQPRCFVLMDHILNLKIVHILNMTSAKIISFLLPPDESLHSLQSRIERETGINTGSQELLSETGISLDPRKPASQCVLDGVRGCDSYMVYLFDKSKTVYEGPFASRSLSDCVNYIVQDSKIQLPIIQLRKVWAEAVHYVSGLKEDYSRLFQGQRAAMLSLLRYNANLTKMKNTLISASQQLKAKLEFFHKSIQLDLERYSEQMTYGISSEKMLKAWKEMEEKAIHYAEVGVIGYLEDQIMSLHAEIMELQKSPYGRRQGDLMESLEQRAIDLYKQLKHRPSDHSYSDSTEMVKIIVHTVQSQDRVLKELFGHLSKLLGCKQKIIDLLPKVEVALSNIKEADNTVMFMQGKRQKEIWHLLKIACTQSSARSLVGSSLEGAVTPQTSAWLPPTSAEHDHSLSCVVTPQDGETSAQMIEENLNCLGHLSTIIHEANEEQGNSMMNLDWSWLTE

[3] = biological target: Fibroblast growth factor receptor 4 (Homo sapiens) (UniProt P22455); assay: Inhibition of FGFR4 (unknown origin) assessed as residual activity at 100 nM by KINOMEscan analysis relative to control
[4] = biological target: Dual specificity tyrosine-phosphorylation-regulated kinase 1A (Homo sapiens) (UniProt Q13627); assay: Inhibition of DYRK1A (unknown origin) assessed as residual activity at 100 nM by KINOMEscan analysis relative to control
[5] = biological target: Calcium-dependent protein kinase 1 (Plasmodium falciparum) (UniProt P62344); assay: Inhibition of Plasmodium falciparum CDPK1 assessed as residual activity at 100 nM by KINOMEscan analysis relative to control
[6] = biological target: T2, Protein kinase C epsilon type (Homo sapiens) (UniProt Q02156); assay: Inhibition of PRKCE (unknown origin) assessed as residual activity at 100 nM by KINOMEscan analysis relative to control
T2 sequence (whole entry): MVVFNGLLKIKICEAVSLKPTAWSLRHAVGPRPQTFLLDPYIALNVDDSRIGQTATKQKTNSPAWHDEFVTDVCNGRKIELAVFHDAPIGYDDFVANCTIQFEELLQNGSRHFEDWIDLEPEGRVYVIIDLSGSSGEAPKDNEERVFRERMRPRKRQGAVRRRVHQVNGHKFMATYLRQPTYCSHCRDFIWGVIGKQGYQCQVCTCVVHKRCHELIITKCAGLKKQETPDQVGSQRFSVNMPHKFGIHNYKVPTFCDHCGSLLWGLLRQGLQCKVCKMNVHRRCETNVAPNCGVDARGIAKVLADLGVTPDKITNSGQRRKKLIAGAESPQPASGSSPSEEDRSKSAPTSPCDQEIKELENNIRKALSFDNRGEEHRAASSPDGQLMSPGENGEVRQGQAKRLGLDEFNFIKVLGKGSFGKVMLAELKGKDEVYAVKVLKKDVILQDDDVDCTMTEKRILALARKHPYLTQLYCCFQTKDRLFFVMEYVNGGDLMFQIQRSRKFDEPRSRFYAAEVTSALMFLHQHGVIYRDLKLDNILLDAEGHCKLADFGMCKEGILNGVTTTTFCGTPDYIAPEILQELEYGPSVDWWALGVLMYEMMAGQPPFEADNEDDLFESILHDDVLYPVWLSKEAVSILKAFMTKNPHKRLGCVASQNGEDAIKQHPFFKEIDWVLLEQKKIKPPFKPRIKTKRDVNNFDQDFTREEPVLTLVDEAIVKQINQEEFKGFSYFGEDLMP

[7] = biological target: T3, Cyclin-dependent kinase-like 5 (Homo sapiens) (UniProt O76039); assay: Inhibition of CDKL5 (unknown origin) assessed as residual activity at 100 nM by KINOMEscan analysis relative to control
T3 sequence (whole entry): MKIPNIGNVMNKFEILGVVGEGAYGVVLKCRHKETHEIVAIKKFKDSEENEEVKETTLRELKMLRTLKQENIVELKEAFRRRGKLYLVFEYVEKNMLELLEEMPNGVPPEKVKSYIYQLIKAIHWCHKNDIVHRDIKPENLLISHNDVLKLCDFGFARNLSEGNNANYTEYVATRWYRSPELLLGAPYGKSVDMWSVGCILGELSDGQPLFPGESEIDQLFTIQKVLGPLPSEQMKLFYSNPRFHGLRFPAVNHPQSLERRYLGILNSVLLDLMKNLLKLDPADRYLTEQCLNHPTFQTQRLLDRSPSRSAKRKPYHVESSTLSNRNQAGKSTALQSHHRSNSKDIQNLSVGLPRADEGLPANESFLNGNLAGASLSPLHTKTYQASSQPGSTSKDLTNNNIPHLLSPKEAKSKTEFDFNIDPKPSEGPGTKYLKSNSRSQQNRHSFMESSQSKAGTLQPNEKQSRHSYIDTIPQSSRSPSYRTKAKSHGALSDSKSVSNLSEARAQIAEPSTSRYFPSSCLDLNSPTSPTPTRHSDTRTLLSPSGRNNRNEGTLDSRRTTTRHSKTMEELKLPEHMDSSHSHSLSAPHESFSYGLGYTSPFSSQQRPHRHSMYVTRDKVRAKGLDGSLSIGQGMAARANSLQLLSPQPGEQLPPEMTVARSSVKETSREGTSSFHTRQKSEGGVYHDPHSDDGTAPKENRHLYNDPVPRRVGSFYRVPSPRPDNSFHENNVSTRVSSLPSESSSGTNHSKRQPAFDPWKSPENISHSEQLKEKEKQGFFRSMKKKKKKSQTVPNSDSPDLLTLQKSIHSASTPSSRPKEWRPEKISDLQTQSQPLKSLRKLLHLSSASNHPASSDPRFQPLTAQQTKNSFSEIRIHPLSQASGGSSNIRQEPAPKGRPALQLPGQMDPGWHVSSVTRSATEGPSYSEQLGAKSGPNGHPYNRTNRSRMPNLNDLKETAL

[8] = biological target: Cyclin-dependent kinase 9 (Homo sapiens) (UniProt P50750); assay: Inhibition of CDK9 (unknown origin) assessed as residual activity at 100 nM by KINOMEscan analysis relative to control
Cyclin-dependent kinase 9 (Homo sapiens), sequence (P50750 whole entry): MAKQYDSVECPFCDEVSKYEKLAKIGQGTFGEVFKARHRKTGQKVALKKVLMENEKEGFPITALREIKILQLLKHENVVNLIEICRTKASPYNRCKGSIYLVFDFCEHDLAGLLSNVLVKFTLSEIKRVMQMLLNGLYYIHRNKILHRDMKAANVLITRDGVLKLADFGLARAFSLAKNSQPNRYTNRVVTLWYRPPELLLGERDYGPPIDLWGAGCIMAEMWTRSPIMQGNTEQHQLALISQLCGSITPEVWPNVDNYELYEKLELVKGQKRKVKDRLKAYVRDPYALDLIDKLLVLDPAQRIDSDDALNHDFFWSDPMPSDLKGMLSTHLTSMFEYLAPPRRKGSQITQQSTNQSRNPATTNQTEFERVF

Fibroblast growth factor receptor 4 (Homo sapiens), sequence (P22455 22-802 limits assumed): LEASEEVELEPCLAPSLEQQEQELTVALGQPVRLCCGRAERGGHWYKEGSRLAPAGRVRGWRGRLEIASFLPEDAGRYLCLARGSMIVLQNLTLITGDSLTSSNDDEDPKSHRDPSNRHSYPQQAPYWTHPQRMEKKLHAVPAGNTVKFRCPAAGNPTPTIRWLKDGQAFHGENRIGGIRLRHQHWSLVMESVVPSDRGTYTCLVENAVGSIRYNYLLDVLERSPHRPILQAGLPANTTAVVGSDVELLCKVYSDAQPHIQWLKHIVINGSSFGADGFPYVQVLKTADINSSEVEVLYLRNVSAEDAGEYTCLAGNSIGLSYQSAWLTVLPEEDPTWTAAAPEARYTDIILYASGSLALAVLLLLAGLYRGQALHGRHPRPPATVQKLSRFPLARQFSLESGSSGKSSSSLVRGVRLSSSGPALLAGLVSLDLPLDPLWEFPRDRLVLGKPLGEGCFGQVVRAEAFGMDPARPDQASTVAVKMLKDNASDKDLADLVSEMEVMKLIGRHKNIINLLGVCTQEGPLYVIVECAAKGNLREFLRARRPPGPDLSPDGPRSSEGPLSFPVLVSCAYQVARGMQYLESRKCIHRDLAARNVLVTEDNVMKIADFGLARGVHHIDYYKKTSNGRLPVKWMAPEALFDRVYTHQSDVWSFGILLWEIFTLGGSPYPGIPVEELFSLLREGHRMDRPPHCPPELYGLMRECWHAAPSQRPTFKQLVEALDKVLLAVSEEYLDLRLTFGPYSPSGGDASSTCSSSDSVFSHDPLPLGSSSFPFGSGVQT
Mitogen-activated protein kinase kinase kinase 9 (Homo sapiens), sequence (P80192 whole entry, looked up): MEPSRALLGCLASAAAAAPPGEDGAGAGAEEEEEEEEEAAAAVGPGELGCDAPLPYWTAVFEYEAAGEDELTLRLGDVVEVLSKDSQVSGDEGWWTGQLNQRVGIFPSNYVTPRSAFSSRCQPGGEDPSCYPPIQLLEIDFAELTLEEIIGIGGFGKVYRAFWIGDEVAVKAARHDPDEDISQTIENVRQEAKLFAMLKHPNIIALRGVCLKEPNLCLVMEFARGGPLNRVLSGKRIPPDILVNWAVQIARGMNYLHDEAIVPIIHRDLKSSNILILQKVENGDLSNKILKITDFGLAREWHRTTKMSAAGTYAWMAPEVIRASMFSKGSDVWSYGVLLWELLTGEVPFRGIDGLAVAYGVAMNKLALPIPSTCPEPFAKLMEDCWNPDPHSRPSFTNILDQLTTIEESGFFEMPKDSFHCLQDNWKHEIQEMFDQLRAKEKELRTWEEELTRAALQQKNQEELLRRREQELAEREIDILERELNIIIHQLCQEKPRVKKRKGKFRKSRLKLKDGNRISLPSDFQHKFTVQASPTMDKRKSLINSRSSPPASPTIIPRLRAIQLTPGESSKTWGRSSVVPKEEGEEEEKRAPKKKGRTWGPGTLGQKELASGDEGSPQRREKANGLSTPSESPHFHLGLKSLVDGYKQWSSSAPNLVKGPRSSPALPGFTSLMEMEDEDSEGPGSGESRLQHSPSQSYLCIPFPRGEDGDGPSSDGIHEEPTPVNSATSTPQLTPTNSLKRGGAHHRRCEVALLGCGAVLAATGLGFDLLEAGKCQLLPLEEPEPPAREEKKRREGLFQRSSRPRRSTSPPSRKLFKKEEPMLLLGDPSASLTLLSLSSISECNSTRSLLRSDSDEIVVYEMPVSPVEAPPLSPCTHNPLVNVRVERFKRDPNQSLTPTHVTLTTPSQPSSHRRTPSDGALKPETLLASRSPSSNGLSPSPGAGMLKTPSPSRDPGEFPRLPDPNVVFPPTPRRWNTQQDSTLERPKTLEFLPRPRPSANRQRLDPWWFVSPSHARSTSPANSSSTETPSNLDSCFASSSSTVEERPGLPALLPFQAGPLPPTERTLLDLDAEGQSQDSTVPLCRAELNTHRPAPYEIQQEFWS
Calcium-dependent protein kinase 1 (Plasmodium falciparum), sequence (P62344 2-524 limits assumed): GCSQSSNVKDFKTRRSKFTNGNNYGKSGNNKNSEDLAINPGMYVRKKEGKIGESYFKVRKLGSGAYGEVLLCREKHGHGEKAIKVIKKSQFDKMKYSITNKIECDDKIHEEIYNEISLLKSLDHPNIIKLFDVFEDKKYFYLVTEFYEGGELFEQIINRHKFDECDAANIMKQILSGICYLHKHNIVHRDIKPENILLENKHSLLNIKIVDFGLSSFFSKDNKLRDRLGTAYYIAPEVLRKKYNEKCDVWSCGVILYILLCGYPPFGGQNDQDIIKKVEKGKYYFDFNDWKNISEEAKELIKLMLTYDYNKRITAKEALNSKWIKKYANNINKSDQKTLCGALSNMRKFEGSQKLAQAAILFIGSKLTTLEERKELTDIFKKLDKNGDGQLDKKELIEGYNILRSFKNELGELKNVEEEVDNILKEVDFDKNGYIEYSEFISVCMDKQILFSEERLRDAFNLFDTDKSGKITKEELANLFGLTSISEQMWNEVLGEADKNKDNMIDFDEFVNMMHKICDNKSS

`COc1cc2ncnc(N[C@H](C)c3cccc4ccccc34)c2cc1OC` showed an Activity [1] of 100%, an Activity [2] of 79% and an Activity [3] of 76%. The Activity [4] was 90%, the Activity [5] was 84% and the Activity [6] was 96%. It also gave an Activity [7] of 96% and an Activity [8] of 89%.
